Measured values from patent publication US8575114B2, “SGLT-2 inhibitors, methods of making them, and uses thereof” (Albany Molecular Research, Inc., priority 2010, dated 2013).

Tests used:
hSGLT-2 = hSGLT-2 (Homo sapiens (Human), UniProt P31639); test: [14C]AMG uptake inhibition in CHO-K1/hSGLT-2 cells; format: cell-based; settings: 4 μM [14C]AMG, 3-hr incubation at 37° C., read-out: SGLT2, IC50
Method: The inhibitory activity of the compounds of this invention against the SGLT-1 or SGLT-2 transporters can be determined by the following assay. […] CHO-K1 cells transfected with pcDNA3.1 (Invitrogen Corp., Carlsbad, Calif.) containing either the full-length hSGLT-1 or hSGLT-2 using Lipofectamine 2000 (Invitrogen Corp., Carlsbad, Calif.) were selected for stable incorporation of the construct by resistance to the selective pressure of Geneticin (450 μg/ml; Invitrogen Corp., Carlsbad, Calif.). Monoclonal cell lines isolated by minimal dilution were screened for uptake activity of radiolabled methyl α-D-glucopyranoside ([^14C]AMG), a non-metabolizable glucose analogue, and a single clone for each transporter was selected for maximal transporter activity to be used for evaluating the inhibitory activity of the compounds of this invention. In brief, 35,000 cells (CHO-K1/hSGLT-1 or CHO-K1/hSGLT-2) were plated per well of a black tissue culture treated 96-well plate in Ham's F12 media supplemented with 10% heat inactivated FBS and allowed to attached overnight at 37° C. and 5% CO2. Compounds were serially diluted 3-fold in DMSO generating a nine (9) data point dose response curve for each compound. Two replicates were performed per determination. […] Following a 3-hr incubation at 37° C. and 5% CO2, the uptake reaction was stopped by washing the cells three (3) times with ice-cold D-PBS and then lysing the cells with 50 μl of Microscint-20. […] Data were fit to an empirical four-parameter model to determine the inhibitor concentration at half-maximal response (IC50). The assay window was established by control wells incubated with [^14C]AMG in the presence or absence of sodium. A dose response curve for phlorizin was generated on every plate as a positive control.

hSGLT-1 = hSGLT-1 (Homo sapiens (Human), UniProt P13866); test: [14C]AMG uptake inhibition in CHO-K1/hSGLT-1 cells; format: cell-based; settings: 4 μM [14C]AMG, 3-hr incubation at 37° C., read-out: SGLT-1, IC50
Excerpt: The inhibitory activity of the compounds of this invention against the SGLT-1 or SGLT-2 transporters can be determined by the following assay. The cDNAs for the human genes of SGLT-1 (SLC5A1—solute carrier family 5 sodium/glucose cotransporter member 1; Accession #NM_000343.1) or SGLT-2 (SLC5A2—member 2; Accession #NM_003041.2) were synthesized (OriGene Technologies, Inc.) and sub-cloned into the mammalian expression vector, pcDNA3.1 (Invitrogen Corp., Carlsbad, Calif.) using standard molecular biology techniques. CHO-K1 cells transfected with pcDNA3.1 (Invitrogen Corp., Carlsbad, Calif.) containing either the full-length hSGLT-1 or hSGLT-2 using Lipofectamine 2000 (Invitrogen Corp., Carlsbad, Calif.) were selected for stable incorporation of the construct by resistance to the selective pressure of Geneticin (450 μg/ml; Invitrogen Corp., Carlsbad, Calif.). Monoclonal cell lines isolated by minimal dilution were screened for uptake activity of radiolabled methyl α-D-glucopyranoside ([^14C]AMG), a non-metabolizable glucose analogue, and a single clone for each transporter was selected for maximal transporter activity to be used for evaluating the inhibitory activity of the compounds of this invention. In brief, 35,000 cells (CHO-K1/hSGLT-1 or CHO-K1/hSGLT-2) were plated per well of a black tissue culture treated 96-well plate in Ham's F12 media supplemented with 10% heat inactivated FBS and allowed to attached overnight at 37° C. and 5% CO2. Compounds were serially diluted 3-fold in DMSO generating a nine (9) data point dose response curve for each compound. Two replicates were performed per determination. The compounds were then diluted into Uptake Buffer (10 mM Hepes, 5 mM Tris, 137 mM NaCl, 5.4 mM KCl, 2.8 mM CaCl2, and 1.2 mM MgSO4, pH 7.4) with a final DMSO concentration of 0.9% (v/v). After the overnight incubation and prior to compound treatment, the cells were washed twice with Sodium Free Buffer in which the sodium chloride was replaced with 137 mM Choline Chloride, and then incubated with 4 μM [^14C]AMG in Uptake Buffer in the presence or absence of diluted compound. Following a 3-hr incubation at 37° C. and 5% CO2, the uptake reaction was stopped by washing the cells three (3) times with ice-cold D-PBS and then lysing the cells with 50 μl of Microscint-20. After 15-min, the amount of radioactivity that was incorporated into the cells was quantified using a Microbeta reader. Data were fit to an empirical four-parameter model to determine the inhibitor concentration at half-maximal response (IC50). The assay window was established by control wells incubated with [^14C]AMG in the presence or absence of sodium. A dose response curve for phlorizin was generated on every plate as a positive control.

hSGLT-2, sequence (P31639 whole entry): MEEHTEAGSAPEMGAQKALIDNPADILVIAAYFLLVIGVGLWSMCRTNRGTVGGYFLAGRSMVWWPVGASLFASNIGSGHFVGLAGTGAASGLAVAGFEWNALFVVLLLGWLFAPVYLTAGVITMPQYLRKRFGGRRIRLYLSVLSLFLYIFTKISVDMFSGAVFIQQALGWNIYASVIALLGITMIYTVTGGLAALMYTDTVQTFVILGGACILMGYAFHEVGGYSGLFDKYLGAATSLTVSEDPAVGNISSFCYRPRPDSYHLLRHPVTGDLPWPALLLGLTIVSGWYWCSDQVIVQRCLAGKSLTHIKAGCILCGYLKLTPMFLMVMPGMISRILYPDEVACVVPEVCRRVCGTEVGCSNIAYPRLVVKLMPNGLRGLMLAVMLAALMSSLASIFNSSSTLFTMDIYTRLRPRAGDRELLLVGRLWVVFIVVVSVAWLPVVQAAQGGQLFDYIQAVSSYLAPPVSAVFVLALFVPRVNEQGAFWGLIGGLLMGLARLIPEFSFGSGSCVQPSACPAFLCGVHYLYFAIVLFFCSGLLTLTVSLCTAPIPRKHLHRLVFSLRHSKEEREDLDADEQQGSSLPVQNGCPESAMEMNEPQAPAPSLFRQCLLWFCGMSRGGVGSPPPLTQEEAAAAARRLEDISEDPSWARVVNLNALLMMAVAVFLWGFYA
hSGLT-1, sequence (P13866 whole entry): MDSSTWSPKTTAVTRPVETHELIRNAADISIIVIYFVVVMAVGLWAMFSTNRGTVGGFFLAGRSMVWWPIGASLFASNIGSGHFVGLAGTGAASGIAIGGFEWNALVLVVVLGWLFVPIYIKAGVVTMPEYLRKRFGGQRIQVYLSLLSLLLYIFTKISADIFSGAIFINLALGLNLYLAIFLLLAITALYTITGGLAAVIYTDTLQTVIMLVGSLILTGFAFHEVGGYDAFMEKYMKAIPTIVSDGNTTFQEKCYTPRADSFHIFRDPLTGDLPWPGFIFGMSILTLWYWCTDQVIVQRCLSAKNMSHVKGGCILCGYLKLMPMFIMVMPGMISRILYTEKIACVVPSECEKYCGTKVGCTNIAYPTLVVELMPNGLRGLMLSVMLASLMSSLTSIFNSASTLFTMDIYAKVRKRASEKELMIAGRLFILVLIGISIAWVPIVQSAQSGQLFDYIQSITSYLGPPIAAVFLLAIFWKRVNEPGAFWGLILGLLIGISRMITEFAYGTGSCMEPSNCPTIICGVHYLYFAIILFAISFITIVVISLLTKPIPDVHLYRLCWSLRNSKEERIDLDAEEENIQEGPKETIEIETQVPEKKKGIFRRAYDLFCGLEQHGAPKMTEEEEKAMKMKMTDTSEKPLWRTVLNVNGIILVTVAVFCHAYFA

Structure (SMILES)	IC50 (hSGLT-2) [nM]	IC50 (hSGLT-1) [nM]
Cc1ccn2c(=O)n(Cc3cc([C@@H]4O[C@H](CO)[C@@H](O)[C@H](O)[C@H]4O)ccc3Cl)nc2c1 [I-9, 2-(2-chloro-5-((2S,3R,4R,5S,6R)-3,4,5-trihydroxy-6-(hydroxymethyl)tetrahydro-2H-pyran-2-yl)benzyl)-7-methyl-[1,2,4]triazolo[4,3-a]pyridin-3(2H)-one]	109	–
CN1C(=O)N(c2ccc(Cc3cc([C@@H]4O[C@H](CO)[C@@H](O)[C@H](O)[C@H]4O)ccc3Cl)cc2)C(C)(C)C1=O [III-5, 1-(4-(2-chloro-5-((2S,3R,4R,5S,6R)-3,4,5-trihydroxy-6-(hydroxymethyl)tetrahydro-2H-pyran-2-yl)benzyl)phenyl)-3,5,5-trimethylimidazolidine-2,4-dione]	489	> 90000
O=c1n(Cc2cc([C@@H]3O[C@H](CO)[C@@H](O)[C@H](O)[C@H]3O)ccc2Cl)nc2cc(C(F)(F)F)ccn12 [I-3, 2-(2-chloro-5-((2S,3R,4R,5S,6R)-3,4,5-trihydroxy-6-(hydroxymethyl)tetrahydro-2H-pyran-2-yl)benzyl)-7-(trifluoromethyl)-[1,2,4]triazolo[4,3-a]pyridin-3(2H)-one]	273	49500
Cc1ccc2nn(Cc3cc([C@@H]4O[C@H](CO)[C@@H](O)[C@H](O)[C@H]4O)ccc3Cl)c(=O)n2c1 [I-2, 2-(2-chloro-5-((2S,3R,4R,5S,6R)-3,4,5-trihydroxy-6-(hydroxymethyl)tetrahydro-2H-pyran-2-yl)benzyl)-6-methyl-[1,2,4]triazolo[4,3-a]pyridin-3(2H)-one]	129	67400
O=c1n(Cc2cc([C@@H]3O[C@H](CO)[C@@H](O)[C@H](O)[C@H]3O)ccc2Cl)nc2ccc(Cl)cn12 [I-8, 6-chloro-2-(2-chloro-5-((2S,3R,4R,5S,6R)-3,4,5-trihydroxy-6-(hydroxymethyl)tetrahydro-2H-pyran-2-yl)benzyl)-[1,2,4]triazolo[4,3-a]pyridin-3(2H)-one]	81.1	61200
CN1CC(=O)N(c2ccc(Cc3cc([C@@H]4O[C@H](CO)[C@@H](O)[C@H](O)[C@H]4O)ccc3Cl)cc2)C1=O [III-3, 3-(4-(2-chloro-5-((2S,3R,4R,5S,6R)-3,4,5-trihydroxy-6-(hydroxymethyl)tetrahydro-2H-pyran-2-yl)benzyl)phenyl)-1-methylimidazolidine-2,4-dione]	148	83
O=c1n(Cc2cc([C@@H]3O[C@H](CO)[C@@H](O)[C@H](O)[C@H]3O)ccc2Cl)nc2ccc(Br)cn12 [I-10, 6-bromo-2-(2-chloro-5-((2S,3R,4R,5S,6R)-3,4,5-trihydroxy-6-(hydroxymethyl)tetrahydro-2H-pyran-2-yl)benzyl)-[1,2,4]triazolo[4,3-a]pyridin-3(2H)-one]	94.8	45600
O=C1CN(c2ccc(Cc3cc([C@@H]4O[C@H](CO)[C@@H](O)[C@H](O)[C@H]4O)ccc3Cl)cc2)C(=O)N1C(c1ccccc1)(c1ccccc1)c1ccccc1 [III-1, 1-(4-(2-chloro-5-((2S,3R,4R,5S,6R)-3,4,5-trihydroxy-6-(hydroxymethyl)tetrahydro-2H-pyran-2-yl)benzyl)phenyl)-3-tritylimidazolidine-2,4-dione]	329	6250
O=c1n(Cc2cc([C@@H]3O[C@H](CO)[C@@H](O)[C@H](O)[C@H]3O)ccc2Cl)nc2ccc(F)cn12 [I-11, 2-(2-chloro-5-((2S,3R,4R,5S,6R)-3,4,5-trihydroxy-6-(hydroxymethyl)tetrahydro-2H-pyran-2-yl)benzyl)-6-fluoro-[1,2,4]triazolo[4,3-a]pyridin-3(2H)-one]	222	–
O=c1n(Cc2cc([C@@H]3O[C@H](CO)[C@@H](O)[C@H](O)[C@H]3O)ccc2Cl)nc2ccc(C(F)(F)F)cn12 [I-5, 2-(2-chloro-5-((2S,3R,4R,5S,6R)-3,4,5-trihydroxy-6-(hydroxymethyl)tetrahydro-2H-pyran-2-yl)benzyl)-6-(trifluoromethyl)-[1,2,4]triazolo[4,3-a]pyridin-3(2H)-one]	991	> 90000
O=c1n(Cc2cc([C@@H]3O[C@H](CO)[C@@H](O)[C@H](O)[C@H]3O)ccc2Cl)nc2ccc(CO)cn12 [I-6, 2-(2-chloro-5-((2S,3R,4R,5S,6R)-3,4,5-trihydroxy-6-(hydroxymethyl)tetrahydro-2H-pyran-2-yl)benzyl)-6-(hydroxymethyl)-[1,2,4]triazolo[4,3-a]pyridin-3(2H)-one]	145	> 90000
OC[C@H]1O[C@@H](c2ccc(Cl)c(Cn3nc4ccccn4c3=S)c2)[C@H](O)[C@@H](O)[C@@H]1O [I-7, 2-(2-chloro-5-((2S,3R,4R,5S,6R)-3,4,5-trihydroxy-6-(hydroxymethyl)tetrahydro-2H-pyran-2-yl)benzyl)-[1,2,4]triazolo[4,3-a]pyridine-3(2H)-thione]	316	> 73200
O=c1n(Cc2cc([C@@H]3O[C@H](CO)[C@@H](O)[C@H](O)[C@H]3O)ccc2Cl)nc2cc(CO)ccn12 [I-14, 2-(2-chloro-5-((2S,3R,4R,5S,6R)-3,4,5-trihydroxy-6-(hydroxymethyl)tetrahydro-2H-pyran-2-yl)benzyl)-7-(hydroxymethyl)-[1,2,4]triazolo[4,3-a]pyridin-3(2H)-one]	170	> 90000
CCN1C(=O)CN(c2ccc(Cc3cc([C@@H]4O[C@H](CO)[C@@H](O)[C@H](O)[C@H]4O)ccc3Cl)cc2)C1=O [III-2, 1-(4-(2-chloro-5-((2S,3R,4R,5S,6R)-3,4,5-trihydroxy-6-(hydroxymethyl)tetrahydro-2H-pyran-2-yl)benzyl)phenyl)-3-ethylimidazolidine-2,4-dione]	11.4	17500
O=c1n(Cc2cc([C@@H]3O[C@H](CO)[C@@H](O)[C@H](O)[C@H]3O)ccc2Cl)nc2ccc(CCO)cn12 [I-15, 2-(2-chloro-5-((2S,3R,4R,5S,6R)-3,4,5-trihydroxy-6-(hydroxymethyl)tetrahydro-2H-pyran-2-yl)benzyl)-6-(2-hydroxyethyl)-[1,2,4]triazolo[4,3-a]pyridin-3(2H)-one]	463	> 90000
CC(C)N1C(=O)CN(c2ccc(Cc3cc([C@@H]4O[C@H](CO)[C@@H](O)[C@H](O)[C@H]4O)ccc3Cl)cc2)C1=O [III-4, 1-(4-(2-chloro-5-((2S,3R,4R,5S,6R)-3,4,5-trihydroxy-6-(hydroxymethyl)tetrahydro-2H-pyran-2-yl)benzyl)phenyl)-3-isopropylimidazolidine-2,4-dione]	23.6	35400
Cc1cc2nn(Cc3cc([C@@H]4O[C@H](CO)[C@@H](O)[C@H](O)[C@H]4O)ccc3Cl)c(=O)n2cc1Cl [I-12, 6-chloro-2-(2-chloro-5-((2S,3R,4R,5S,6R)-3,4,5-trihydroxy-6-(hydroxymethyl)tetrahydro-2H-pyran-2-yl)benzyl)-7-methyl-[1,2,4]triazolo[4,3-a]pyridin-3(2H)-one]	36.6	> 90000
